# Measurements published in the supplement of paper PMC4862054.
# What was measured:
# Details in all cases: incubation time: 72 h
# Hs578T = experiment: drug sensitivity score (DSS), CellTiter-Glo (DSS (AUC-based score)); higher = stronger drug effect (viability inhibition or cytotoxicity); extreme values may be limits of the assay
# How it was run: (§1)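 In 384-well plates, compound was laid out at 5 concentrations in 10-fold steps over a 10,000-fold range specific to each compound, and breast cancer cell lines were seeded on top in 20 µl suspension for a 72 h incubation. CellTox Green fluorescence and then CellTiter-Glo luminescence were read, and each plate was normalised to 0.1 % DMSO and a positive kill control. The drug sensitivity score was calculated from the area under the fitted dose-response curve.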
# MDA-MB-453 = experiment: as above
# How it was run: as §1
# DU-4475 [1] = experiment: as above
# How it was run: as §1
# SK-BR-3 = experiment: as above
# How it was run: as §1
# MDA-MB-231 = experiment: as above
# How it was run: as §1
# BT-549 = experiment: as above
# How it was run: as §1
# MDA-MB-436 = experiment: as above
# How it was run: as §1
# MDA-MB-468 = experiment: as above
# How it was run: as §1
# CAL-51 [2] = experiment: as above
# How it was run: as §1
# MFM-223 = experiment: as above
# How it was run: as §1
# CAL-120 = experiment: as above
# How it was run: as §1
# HCC1599 = experiment: as above
# How it was run: as §1
# CAL-148 [3] = experiment: as above
# How it was run: as §1
# HCC1937 = experiment: as above
# How it was run: as §1
# CAL-85-1 [4] = experiment: as above
# How it was run: as §1
# BT-474 = experiment: as above
# How it was run: as §1
# MCF-10A = experiment: as above
# How it was run: as §1
# HDQ-P1 [5] = experiment: as above
# How it was run: as §1
# HCC1143 = experiment: as above
# How it was run: as §1
# DU-4475 [6] = experiment: normalised viability (% of control), CellTiter-Blue; higher = more viable cells (about 100 = DMSO control)
# Experimental: (§2)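 DSRT, CellTiter-Blue viability, 72 h incubation. Signal is normalised to DMSO and benzethonium chloride controls. Value is the normalised response at dose 7.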
# CAL-51 [7] = experiment: as above
# Experimental: as §2
# CAL-148 [8] = experiment: as above
# Experimental: as §2
# CAL-85-1 [9] = experiment: as above
# Experimental: as §2
# HDQ-P1 [10] = experiment: as above
# Experimental: as §2
# CAL-148 [11] = experiment: normalised viability (% of control), CellTiter-Blue; higher = more viable cells (about 100 = DMSO control); remark: listed apart in the source
# How it was run: (§3)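 The reported figure is normalised viability at a single listed concentration of the series. Breast cancer cell lines (20 µl suspension) went onto 384-well plates holding compound in 5 µl medium for 72 h. CellTiter-Blue (2.5 µl, 2 h, 37 °C) was read by fluorescence at 560/590 nm, and each plate was scaled to vehicle at 100 and a positive kill control at 0.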
# HDQ-P1 [12] = experiment: as above; remark: listed apart in the source
# How it was run: as §3
structure (smiles),measurement,setting,value
Nc1ccccc1NC(=O)c1ccc(CNC(=O)OCc2cccnc2)cc1 [Entinostat],drug sensitivity score,Hs578T,4.83
same,drug sensitivity score,MDA-MB-453,6.08
same,drug sensitivity score,DU-4475 [1],4.63
same,drug sensitivity score,SK-BR-3,6.67
same,drug sensitivity score,MDA-MB-231,2.59
same,drug sensitivity score,BT-549,8.43
same,drug sensitivity score,MDA-MB-436,2.51
same,drug sensitivity score,MDA-MB-468,4.34
same,drug sensitivity score,CAL-51 [2],12.8
same,drug sensitivity score,MFM-223,3.34
same,drug sensitivity score,CAL-120,0
same,drug sensitivity score,HCC1599,4.34
same,drug sensitivity score,CAL-148 [3],4.83
same,drug sensitivity score,HCC1937,0
same,drug sensitivity score,CAL-85-1 [4],1.24
same,drug sensitivity score,BT-474,2.59
same,drug sensitivity score,MCF-10A,0
same,drug sensitivity score,HDQ-P1 [5],2.05
same,drug sensitivity score,HCC1143,3.36
same,normalised viability,DU-4475 [6]; 1000 nM,121%
same,normalised viability,CAL-51 [7]; 1000 nM,105%
same,normalised viability,CAL-148 [8]; 1000 nM,78.8%
same,normalised viability,CAL-85-1 [9]; 1000 nM,85.4%
same,normalised viability,HDQ-P1 [10]; 1000 nM,111%
same,normalised viability,CAL-148 [11]; 3 nM,85.4%
same,normalised viability,CAL-148 [11]; 30 nM,84.9%
same,normalised viability,CAL-148 [11]; 100 nM,86.7%
same,normalised viability,HDQ-P1 [12]; 3 nM,103%
same,normalised viability,HDQ-P1 [12]; 30 nM,110%
same,normalised viability,HDQ-P1 [12]; 100 nM,102%
Nc1nc(F)nc2c1ncn2[C@@H]1O[C@H](CO)[C@@H](O)[C@@H]1O [Fludarabine],drug sensitivity score,Hs578T,0
same,drug sensitivity score,MDA-MB-453,0
same,drug sensitivity score,DU-4475 [1],0
same,drug sensitivity score,SK-BR-3,0
same,drug sensitivity score,MDA-MB-231,0
same,drug sensitivity score,BT-549,0.896
same,drug sensitivity score,MDA-MB-436,1.1
same,drug sensitivity score,MDA-MB-468,0
same,drug sensitivity score,CAL-51 [2],0
same,drug sensitivity score,MFM-223,0
same,drug sensitivity score,CAL-120,0.352
same,drug sensitivity score,HCC1599,0
same,drug sensitivity score,CAL-148 [3],0
same,drug sensitivity score,HCC1937,0
same,drug sensitivity score,CAL-85-1 [4],0.486
same,drug sensitivity score,BT-474,0
same,drug sensitivity score,MCF-10A,0
same,drug sensitivity score,HDQ-P1 [5],0
same,drug sensitivity score,HCC1143,0
same,normalised viability,DU-4475 [6]; 1000 nM,99.5%
same,normalised viability,CAL-51 [7]; 1000 nM,102%
same,normalised viability,CAL-148 [8]; 1000 nM,93.8%
same,normalised viability,CAL-85-1 [9]; 1000 nM,93.8%
same,normalised viability,HDQ-P1 [10]; 1000 nM,98.4%
same,normalised viability,CAL-148 [11]; 3 nM,71%
same,normalised viability,CAL-148 [11]; 30 nM,82.6%
same,normalised viability,CAL-148 [11]; 100 nM,87.7%
same,normalised viability,HDQ-P1 [12]; 3 nM,107%
same,normalised viability,HDQ-P1 [12]; 30 nM,91%
same,normalised viability,HDQ-P1 [12]; 100 nM,96.4%
O=C(Cc1ccc(-c2ccc(OCCN3CCOCC3)cc2)cn1)NCc1ccccc1 [KX2-391],drug sensitivity score,Hs578T,23.2
same,drug sensitivity score,MDA-MB-453,9
same,drug sensitivity score,DU-4475 [1],15.2
same,drug sensitivity score,SK-BR-3,27.5
same,drug sensitivity score,MDA-MB-231,14.1
same,drug sensitivity score,BT-549,16.3
same,drug sensitivity score,MDA-MB-436,21
same,drug sensitivity score,MDA-MB-468,20
same,drug sensitivity score,CAL-51 [2],25.9
same,drug sensitivity score,MFM-223,15.6
same,drug sensitivity score,CAL-120,11
same,drug sensitivity score,HCC1599,23.8
same,drug sensitivity score,CAL-148 [3],16.9
same,drug sensitivity score,HCC1937,8.24
same,drug sensitivity score,CAL-85-1 [4],18.5
same,drug sensitivity score,BT-474,12.8
same,drug sensitivity score,MCF-10A,8.52
same,drug sensitivity score,HDQ-P1 [5],8.26
same,drug sensitivity score,HCC1143,14.7
same,normalised viability,DU-4475 [6]; 1000 nM,9.93%
same,normalised viability,CAL-51 [7]; 1000 nM,11.1%
same,normalised viability,CAL-148 [8]; 1000 nM,18.4%
same,normalised viability,CAL-85-1 [9]; 1000 nM,33.9%
same,normalised viability,HDQ-P1 [10]; 1000 nM,45.1%
same,normalised viability,CAL-148 [11]; 3 nM,94.8%
same,normalised viability,CAL-148 [11]; 30 nM,91.3%
same,normalised viability,CAL-148 [11]; 100 nM,16.8%
same,normalised viability,HDQ-P1 [12]; 3 nM,112%
same,normalised viability,HDQ-P1 [12]; 30 nM,97.7%
same,normalised viability,HDQ-P1 [12]; 100 nM,43.2%
N#Cc1ccc(C(c2ccc(C#N)cc2)n2cncn2)cc1 [Letrozole],drug sensitivity score,Hs578T,0
same,drug sensitivity score,MDA-MB-453,0
same,drug sensitivity score,DU-4475 [1],0
same,drug sensitivity score,SK-BR-3,0
same,drug sensitivity score,MDA-MB-231,0
same,drug sensitivity score,BT-549,0
same,drug sensitivity score,MDA-MB-436,0
same,drug sensitivity score,MDA-MB-468,0
same,drug sensitivity score,CAL-51 [2],0
same,drug sensitivity score,MFM-223,0
same,drug sensitivity score,CAL-120,0
same,drug sensitivity score,HCC1599,0
same,drug sensitivity score,CAL-148 [3],0
same,drug sensitivity score,HCC1937,0
same,drug sensitivity score,CAL-85-1 [4],0
same,drug sensitivity score,BT-474,0
same,drug sensitivity score,MCF-10A,0
same,drug sensitivity score,HDQ-P1 [5],0
same,drug sensitivity score,HCC1143,0
same,normalised viability,DU-4475 [6]; 1000 nM,87.2%
same,normalised viability,CAL-51 [7]; 1000 nM,106%
same,normalised viability,CAL-148 [8]; 1000 nM,86%
same,normalised viability,CAL-85-1 [9]; 1000 nM,84.8%
same,normalised viability,HDQ-P1 [10]; 1000 nM,83.8%
same,normalised viability,CAL-148 [11]; 3 nM,93.8%
same,normalised viability,CAL-148 [11]; 30 nM,93%
same,normalised viability,CAL-148 [11]; 100 nM,94.8%
same,normalised viability,HDQ-P1 [12]; 3 nM,90.8%
same,normalised viability,HDQ-P1 [12]; 30 nM,79.5%
same,normalised viability,HDQ-P1 [12]; 100 nM,84.5%
CCN(CC)CCCC(C)Nc1c2ccc(Cl)cc2nc2ccc(OC)cc12 (stereo unspecified) [Mepacrine],drug sensitivity score,Hs578T,0
same,drug sensitivity score,MDA-MB-453,0
same,drug sensitivity score,DU-4475 [1],0
same,drug sensitivity score,SK-BR-3,0
same,drug sensitivity score,MDA-MB-231,0
same,drug sensitivity score,BT-549,0
same,drug sensitivity score,MDA-MB-436,0
same,drug sensitivity score,MDA-MB-468,0
same,drug sensitivity score,CAL-51 [2],0
same,drug sensitivity score,MFM-223,0
same,drug sensitivity score,CAL-120,0
same,drug sensitivity score,HCC1599,0
same,drug sensitivity score,CAL-148 [3],0
same,drug sensitivity score,HCC1937,0
same,drug sensitivity score,CAL-85-1 [4],0
same,drug sensitivity score,BT-474,0
same,drug sensitivity score,MCF-10A,0
same,drug sensitivity score,HDQ-P1 [5],0
same,drug sensitivity score,HCC1143,0
same,normalised viability,DU-4475 [6]; 99 nM,97.3%
same,normalised viability,DU-4475 [6]; 1000 nM,84.3%
same,normalised viability,CAL-51 [7]; 99 nM,96.2%
same,normalised viability,CAL-51 [7]; 1000 nM,103%
same,normalised viability,CAL-148 [8]; 99 nM,122%
same,normalised viability,CAL-148 [8]; 1000 nM,81.4%
same,normalised viability,CAL-85-1 [9]; 99 nM,97.8%
same,normalised viability,CAL-85-1 [9]; 1000 nM,90.3%
same,normalised viability,HDQ-P1 [10]; 99 nM,86.9%
same,normalised viability,HDQ-P1 [10]; 1000 nM,84.9%
same,normalised viability,CAL-148 [11]; 0.297 nM,118%
same,normalised viability,CAL-148 [11]; 2.97 nM,110%
same,normalised viability,CAL-148 [11]; 3 nM,98.7%
same,normalised viability,CAL-148 [11]; 9.9 nM,129%
same,normalised viability,CAL-148 [11]; 30 nM,106%
same,normalised viability,CAL-148 [11]; 100 nM,102%
same,normalised viability,HDQ-P1 [12]; 0.297 nM,113%
same,normalised viability,HDQ-P1 [12]; 2.97 nM,109%
same,normalised viability,HDQ-P1 [12]; 3 nM,112%
same,normalised viability,HDQ-P1 [12]; 9.9 nM,104%
same,normalised viability,HDQ-P1 [12]; 30 nM,113%
same,normalised viability,HDQ-P1 [12]; 100 nM,116%
